Five compounds from ChEMBL document CHEMBL5537134, “Targeting the pyruvate dehydrogenase complex/pyruvate dehydrogenase kinase (PDC/PDK) axis to discover potent PDK inhibitors through structure-based virtual screening and pharmacological evaluation” (Eur J Med Chem, 2024) can be followed below.

The subject of data set [1] is A549. The experiment in a line: Antiproliferative activity against human A549 cells assessed as reduction in cell viability incubated for 72 hrs by CCK8 assay. The format is functional, cell-based. The note with it: A549, 72 h. Background: Tetrazolium assays rely on reduction of a dye to a coloured formazan, in cell work by metabolically active cells.
In data set [2] the target is T1, [Pyruvate dehydrogenase (acetyl-transferring)] kinase isozyme 1, mitochondrial (Homo sapiens, UniProt Q15118). The experiment in a line: Inhibition of 6His-tagged full length PDK1 (unknown origin) expressed in Escherichia coli in presence of ATP by ELISA based kinase activity assay. On the technique in general: In an ELISA, binding on a coated surface is turned into a signal by an enzyme label.

The target in data set [3] is T1, [Pyruvate dehydrogenase (acetyl-transferring)] kinase isozyme 1, mitochondrial. The experiment in a line: Inhibition of recombinant full-length human PDK1 (1 to 436 residues) expressed in baculovirus infected Sf9 insect cells using PDHA1 as substrate at 10 uM incubated for 1 hrs in presence of ATP by Kinase-Glo luminescence assay. (In general: In Kinase-Glo more light means more ATP remaining.)

Data set [4] deals with A549. The experiment in a line: Antiproliferative activity against human A549 cells assessed as reduction in cell viability at 40 uM incubated for 72 hrs by MTT assay. The format is functional, cell-based.
For data set [5], the target named is T1, [Pyruvate dehydrogenase (acetyl-transferring)] kinase isozyme 1, mitochondrial. The data set is described as follows: Binding affinity to PDK1 (unknown origin) assessed as dissociation constant in presence of 5-((4-chlorophenyl)sulfonamido)-N-(2-hydroxyethyl)-2,4-dimethylbenzenesulfonamide.
Data set [6] has the same target. The data set is described as follows: Inhibition of recombinant full-length human PDK1 (1 to 436 residues) expressed in baculovirus infected Sf9 insect cells using PDHA1 as substrate incubated for 1 hrs in presence of ATP by Kinase-Glo luminescence assay.
The target of data set [7] is [Pyruvate dehydrogenase (acetyl-transferring)] kinase isozyme 2, mitochondrial (Homo sapiens, UniProt Q15119). The data set is described as follows: Inhibition of recombinant full length human PDK2 (1 to 407 residues) expressed in baculovirus infected Sf9 cells using PDHA1 as substrate incubated for 1 hrs in presence of ATP by ADP-Glo luminescence assay.
Data set [8] relates to A549. The experiment in a line: Induction of cell cycle arrest in human A549 cells assessed as accumulation of cells at S phase at 10 uM incubated for 24 hrs by Propidium Iodide staining based flow cytometry analysis (reference value: 36.92 %). The format is functional.
Data set [9] concerns A549. The experiment in a line: Anticancer activity against human A549 cells assessed as reduction in cell growth at 20 uM by IncuCyte Zoom live cell imaging analysis. The format is functional, cell-based.
Data set [10] relates to A549. The data set is described as follows: Induction of cell cycle arrest in human A549 cells assessed as accumulation of cells at G2 phase at 10 uM incubated for 24 hrs by Propidium Iodide staining based flow cytometry analysis (reference value: 13.19 %). The format is functional.
The test system of data set [11] is A549. The experiment in a line: Induction of cell cycle arrest in human A549 cells assessed as accumulation of cells at G1 phase at 10 uM incubated for 24 hrs by Propidium Iodide staining based flow cytometry analysis (reference value: 49.88 %). The format is functional.
Data set [12] concerns the target T1, [Pyruvate dehydrogenase (acetyl-transferring)] kinase isozyme 1, mitochondrial. The experiment in a line: Binding affinity to PDK1 (unknown origin) assessed as dissociation constant.
In data set [13] the test system is A549. The data set is described as follows: Induction of apoptosis in human A549 cells at 20 uM incubated for 12 hrs by Annexin V-FITC/Propidium Iodide staining based flow cytometry analysis relative to control. The format is functional.
Data set [14] concerns A549. The experiment in a line: Induction of cell cycle arrest in human A549 cells assessed as accumulation of cells at G2 phase at 5 uM incubated for 24 hrs by Propidium Iodide staining based flow cytometry analysis (reference value: 13.19 %). The format is functional.
Data set [15] concerns A549. The data set is described as follows: Induction of apoptosis in human A549 cells at 20 uM by Annexin V-FITC/Propidium Iodide staining based flow cytometry analysis. The format is functional, cell-based. Particulars: time 12-48 hrs, TDE = time-dependent effect.
The test system of data set [16] is Cell membrane. The data set is described as follows: Induction of mitochondrial membrane depolarization in human A549 cells assessed as decrease in lactate formation incubated for 8 hrs by NovaBioprofile Flex analyzer method. The format is cell membranes. Particulars: dose 10-40 µM.
Data set [17] is described as follows: Toxicity in Balb/c mouse assessed as pathological abnormality in heart at 50 mg/kg, ip administered for 7 days by hematoxylin and eosin staining based analysis. The format is organism-based. The note with it: in vivo, 168 h, time 7 day.
Data set [18] deals with Cell membrane. The experiment in a line: Induction of mitochondrial membrane depolarization in human A549 cells assessed as decrease in extracellular acidification by Seahorse XFe96 extracellular flux analyzer method. The format is cell membranes. Particulars: dose 10-40 µM.
Data set [19] concerns A549. The data set is described as follows: Induction of cell cycle arrest in human A549 cells assessed as accumulation of cells at S phase at 5 uM incubated for 24 hrs by Propidium Iodide staining based flow cytometry analysis (reference value: 36.92 %). The format is functional.
Data set [20] concerns A549. The experiment in a line: Antiproliferative activity against human A549 cells assessed as reduction in cell viability incubated for 72 hrs under hypoxic condition by MTT assay. Particulars: A549, 72 h.
The test system of data set [21] is A549. The data set is described as follows: Induction of apoptosis in human A549 cells assessed as apoptotic cells at 20 uM incubated for 48 hrs by Annexin V-FITC/Propidium Iodide staining based flow cytometry analysis relative to control. The format is functional.
Data set [22] concerns Cell membrane. The experiment in a line: Induction of mitochondrial membrane depolarization in human A549 cells assessed as disappearance of red fluorescence at 5 to 20 uM incubated for 4 hrs by TMRM staining based laser scanning confocal microscope analysis. The format is cell membranes. Particulars: dose 5-20 µM.
For data set [23], the system named is Cell membrane. The data set is described as follows: Induction of mitochondrial membrane depolarization in human A549 cells assessed as increase in oxygen consumption rate by Seahorse XFe96 extracellular flux analyzer method. The format is cell membranes. The note with it: dose 10-40 µM.
Data set [24] concerns A549. The experiment in a line: Induction of cell cycle arrest in human A549 cells assessed as accumulation of cells at G2 phase at 7.5 uM incubated for 24 hrs by Propidium Iodide staining based flow cytometry analysis (reference value: 13.19 %). The format is functional.
Data set [25] deals with A549. The data set is described as follows: Induction of apoptosis in human A549 cells assessed as apoptotic cells at 10 uM incubated for 48 hrs by Annexin V-FITC/Propidium Iodide staining based flow cytometry analysis relative to control. The format is functional.
Data set [26] relates to BEAS-2B. The experiment in a line: Cytotoxicity against human BEAS-2B cells assessed as reduction in cell viability upto 50 uM incubated for 72 hrs by MTT assay. The format is toxicity, cell-based.
Data set [27] can be described thus: Toxicity in Balb/c mouse assessed as pathological abnormality in kidney at 50 mg/kg, ip administered for 7 days by hematoxylin and eosin staining based analysis. The format is organism-based. Particulars: in vivo, 168 h, time 7 day.
Data set [28] has as its system A549. The experiment in a line: Induction of cell cycle arrest in human A549 cells assessed as accumulation of cells at G1 phase at 7.5 uM incubated for 24 hrs by Propidium Iodide staining based flow cytometry analysis (reference value: 49.88 %). The format is functional.
Data set [29] deals with Cell membrane. The data set is described as follows: Induction of mitochondrial membrane depolarization in human A549 cells assessed as increase in JC-1 monomer incubated for 4 hrs by JC-1 staining based flow cytometry analysis. The format is cell membranes. The note with it: dose 5-20 µM.
The subject of data set [30] is A549. The experiment in a line: cells. The note with it: Homo sapiens.
Description: Anticancer activity against human A549 cells assessed as inhibition of cell growth incubated for 24 to 72 hrs by IncuCyte Zoom live cell imaging analysis
Data set [31] in a line: Toxicity in Balb/c mouse assessed as change in body weight at 50 mg/kg, ip administered for 7 days. The format is organism-based. Particulars: in vivo, 168 h, time 7 day.
For data set [32], the system named is A549. The experiment in a line: Induction of cell cycle arrest in human A549 cells assessed as accumulation of cells at S phase at 7.5 uM incubated for 24 hrs by Propidium Iodide staining based flow cytometry analysis (reference value: 36.92 %). The format is functional.
Data set [33] is described as follows: Toxicity in Balb/c mouse assessed as death at 50 mg/kg, ip administered for 7 days. The format is organism-based. The note with it: in vivo, 168 h, time 7 day.
Data set [34] concerns A549. The data set is described as follows: Induction of apoptosis in human A549 cells at 20 uM incubated for 24 hrs by Annexin V-FITC/Propidium Iodide staining based flow cytometry analysis relative to control. The format is functional.
A short description of data set [35]: Toxicity in Balb/c mouse assessed as pathological abnormality in spleen at 50 mg/kg, ip administered for 7 days by hematoxylin and eosin staining based analysis. The note with it: in vivo, 168 h, time 7 day. The format is organism-based.
Data set [36] concerns Cell membrane. The data set is described as follows: Induction of mitochondrial membrane depolarization in human A549 cells assessed as increase in green fluorescence intensity at 5 to 20 uM incubated for 4 hrs by JC-1 staining based laser scanning confocal microscope analysis. The format is cell membranes. Particulars: dose 5-20 µM.
The subject of data set [37] is A549. The data set is described as follows: Induction of apoptosis in human A549 cells assessed as apoptotic cells at 5 uM incubated for 48 hrs by Annexin V-FITC/Propidium Iodide staining based flow cytometry analysis relative to control. The format is functional.
Data set [38] in a line: Toxicity in Balb/c mouse assessed as pathological abnormality in lung at 50 mg/kg, ip administered for 7 days by hematoxylin and eosin staining based analysis. The format is organism-based. The note with it: in vivo, 168 h, time 7 day.
For data set [39], the system named is A549. The experiment in a line: Anticancer activity against human A549 cells assessed as inhibition of cell growth at 20 uM by IncuCyte Zoom live cell imaging analysis. Particulars: time 24-72 hrs, TDE = time-dependent effect. The format is functional, cell-based.
For data set [40], the system named is A549. The data set is described as follows: Induction of apoptosis in human A549 cells incubated for 48 hrs by Annexin V-FITC/Propidium Iodide staining based flow cytometry analysis. The format is functional, cell-based. The note with it: dose 5-20 µM.
The nature of data set [41]: Toxicity in Balb/c mouse assessed as clinical signs at 50 mg/kg, ip administered for 7 days. The format is organism-based. The note with it: in vivo, 168 h, time 7 day.
Data set [42] concerns A549. The experiment in a line: Induction of cell cycle arrest in human A549 cells assessed as accumulation of cells at G1 phase at 5 uM incubated for 24 hrs by Propidium Iodide staining based flow cytometry analysis (reference value: 49.88 %). The format is functional.
Data set [43] in a line: Toxicity in Balb/c mouse assessed as pathological abnormality in liver at 50 mg/kg, ip administered for 7 days by hematoxylin and eosin staining based analysis. The format is organism-based. The note with it: in vivo, 168 h, time 7 day.

One may read the IC50 as the point on the concentration scale where inhibition reaches its midpoint. For orientation: EC50 means the concentration giving half of the maximal effect. As a reminder, the Kd is the constant that tells how readily two partners part at equilibrium.

The structures appear in SMILES notation. Activity calls are given as the source filed them. No cut-off for these calls is given here.

T1 sequence (Q15118 whole entry): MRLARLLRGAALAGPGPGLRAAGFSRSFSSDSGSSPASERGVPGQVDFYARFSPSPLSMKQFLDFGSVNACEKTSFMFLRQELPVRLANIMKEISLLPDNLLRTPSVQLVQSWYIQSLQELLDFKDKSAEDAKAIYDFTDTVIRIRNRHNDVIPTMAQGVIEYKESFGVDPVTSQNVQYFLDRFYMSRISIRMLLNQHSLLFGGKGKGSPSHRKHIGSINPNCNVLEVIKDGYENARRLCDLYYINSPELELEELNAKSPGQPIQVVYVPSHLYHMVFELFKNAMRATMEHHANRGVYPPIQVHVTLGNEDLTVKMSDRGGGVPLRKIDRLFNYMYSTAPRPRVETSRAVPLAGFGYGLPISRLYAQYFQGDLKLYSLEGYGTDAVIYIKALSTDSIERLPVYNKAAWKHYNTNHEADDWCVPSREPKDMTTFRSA

For `S=C(SSC(=S)N1CCOCC1)N1CCOCC1`, the IC50 in data set [1] is < 500 nM. Besides, the EC50 in [2] was found to be 49 nM.
Turning to `O=C(c1cccc(S(=O)(=O)Nc2cc(Cl)ccc2Cl)c1)N1CCN(CCO)CC1`, in [3], the inhibition entry is “Active”.
Take `CC(C)[C@H](NC(=O)N1CCN(C(c2ccc(F)cc2)c2ccc(F)cc2)CC1)C(=O)O`: the outcome in data set [4] was Active.
Consider `CN(C)C(=O)c1ccc(S(=O)(=O)c2ccc(NC(=O)[C@@](C)(O)C(F)(F)F)c(Cl)c2)cc1`, for which the results for the Kd in data set [5] and in [12] were 8900 nM and 148 nM, respectively. Also, the concentration for half-maximal inhibition (IC50) in data set [6] was 32.3 nM; in [7], 74.5 nM. Moreover, the values for the Activity in data set [8], in data set [10] and in data set [11] were 18.03%, 13.47% and 68.5%, respectively. Further, the result in data set [9] was inactive.
As to `Cc1cc(C)c(S(=O)(=O)NCCO)cc1NS(=O)(=O)c1ccc(Cl)cc1`, the Activity in [13] is 10.8%; in [14], 12.31%; in data set [15] it was “Tde”; in data set [16] it was “Dose-Dependent Effect”; in data set [17], “Non-Toxic”; in data set [18], “Dose-Dependent Effect”. Further, the Activity is 32.44% in data set [19]; 80.5% in data set [21]; “Dose-Dependent Effect” in data set [23]; 50.66% in data set [8]; 7.98% in data set [24]; 23.8% in data set [25]. The Activity in [10] was 1.58%; in [26], “Non-Toxic”; in data set [27] it was “Non-Toxic”; in data set [28], 49.65%; in data set [29] it was “Dose-Dependent Effect”; in data set [31], “Non-Toxic”. For the same compound, the Activity is listed as 47.77% in data set [11]; 42.37% in [32]; “Non-Toxic” in data set [33]; 60% in data set [34]; “Non-Toxic” in [35]; 8.8% in data set [37]. The Activity result in data set [38] is “Non-Toxic”; in data set [39] it was “Tde”; in data set [40], “Dose-Dependent Effect”; in data set [41], “Non-Toxic”; in data set [42] it was 55.25%; in [43] it was “Non-Toxic”. Further, the values for the IC50 in data set [20] and in data set [7] were 5670 nM and 136 nM, respectively. The outcome in data set [22], in [4] and in data set [36] was Active. This compound yielded an EC50 in data set [30] of 10700 nM.
